Broadly, the solubility is the concentration that dissolves in the medium under given conditions.

Series [1] concerns human cervical carcinoma cell line KB/HeLa. Kind of series: XTT proliferation assay, KB/HeLa. The series is classed as cell-based. As to conditions: for EC50: Homo sapiens, read-out: XTT proliferation assay, EC50, KB/Hela. The text has this: (§1) The substances according to the invention were investigated for their antiproliferative activity in a proliferation test on established tumor cell lines. The test used determines the cellular dehydrogenase activity and makes possible a determination of the cell vitality and indirectly the cell count. The cell lines used are the human cervical carcinoma cell line KB/HeLa (ATCC CCL17), the ovarian adenocarcinoma cell line SKOV-3 (ATCC HTB77), the human glioblastoma cell line […] (NCI 503138) and the lung carcinoma cell line NCI-H460 (NCI 503473).
(§2) The adherently growing tumor cell lines KB/HeLa, SKOV-3, SF-268 and NCI-H460 were cultured under standard conditions in a fumigation incubator at 37° C., 5% CO2 and 95% atmospheric humidity. On experimental day 1, the cells are detached using trypsin/EDTA and pelleted by centrifugation. Subsequently, the cell pellet is resuspended in the respective culture medium at the corresponding cell count and reacted in a 96-well microtiter plate. The plates are then cultured overnight in the fumigation incubator. The test substances are prepared as 1 mg/ml stock solutions in DMSO and diluted to the appropriate concentrations on experimental day 2 using culture medium. The substances in culture medium are then added to the cells and incubated in the fumigation incubator for 45 h. As a control, cells which are not treated with test substance are used. For the XTT assay, 1 mg/ml of XTT (sodium 3′-[1-(phenylaminocarbonyl)-3,4-tetrazolium]-bis(4-methoxy-6-nitro)benzenesulfonic acid) is dissolved in RPMI-1640 medium without Phenol Red. Additionally, a 0.383 mg/ml PMS (N-methyldibenzopyrazine methylsulfate) solution in phosphate-buffered saline solution (PBS) is prepared. On experimental day 4, 75 μl/well of XTT-PMS mixture is pipetted onto the cell plates which in the meantime have been incubated with the test substances for 45 h. For this, shortly before use, the XTT solution is mixed with the PMS solution in the ratio 50:1 (vol:vol). The cell plates are then incubated in the fumigation incubator for a further 3 h and the optical density (OD490 nm) is determined in a photometer. By means of the OD490 nm determined, the percentage inhibition is calculated relative to the control and plotted semilogarithmically in the form of a concentration-action curve. The EC50 is calculated by means of a regression analysis from the concentration-action curve using the program Graphpad Prism.
(Tetrazolium dyes change colour on reduction, which living cells bring about.)

The subject of series [2] is ovarian adenocarcinoma cell line SKOV-3. In words: XTT proliferation assay, SKOV-3. In kind it is cell-based, human. As to conditions: for EC50: Homo sapiens, SK-OV-3, read-out: XTT proliferation assay, EC50, SKOV3.
Text: as §1, §2

Series [3] relates to human glioblastoma cell line SF-268. In words: XTT proliferation assay, SF-268. As to conditions: for EC50: Homo sapiens, read-out: XTT proliferation assay, EC50, SF-268. The series is classed as cell-based.
Text: as §1, §2

Series [4] concerns lung carcinoma cell line NCI-H460. In words: XTT proliferation assay, NCI-H460. In kind it is cell-based, human. As to conditions: for EC50: Homo sapiens, read-out: XTT proliferation assay, EC50, NCI-H460.
Text: as §1, §2

Series [5] can be described thus: Saturation solubility in water. As to conditions: for Water solubility compared to the comparison substances: versus comparison substances of WO0208194; for solubility: water, thermodynamic from solid.
Method: The saturation solubility in water is determined as described below. For incipient dissolution of the substances and to improve wetting of the samples, at most 1% of DMSO is added. To check the content, an HPLC-UV method was used.
[6] abbreviates: NCI-H460 cells, 45 h incubation.

Converted amounts (≈) assume the structure as drawn. Where two headings read alike, the source gives them in different places.

For `O=C(c1c2ccccc2nc2ccccc12)N1CCN(c2cccc(OP(=O)(O)O)c2)CC1` [Compound 4, Mono-{3-[4-(acridin-9-ylcarbonyl)piperazin-1-yl]phenyl}phosphate], the “XTT proliferation assay, EC50, KB/Hela” value in series [1] was determined as 0.018 µg/mL. The “XTT proliferation assay, EC50, SKOV3” value in series [2] was 0.208 µg/mL. Moreover, the “XTT proliferation assay, EC50, SF-268” value in series [3] was 0.140 µg/mL. In series [4], the “XTT proliferation assay, EC50, NCI-H460” value amounted to 0.272 µg/mL.
As to “Mono-{3-[4-(acridin-9-ylcarbonyl)piperazin-1-yl]phenyl}glutarate [Compound 22]”, in series [1] (KB/HeLa cells, 45 h incubation), the “XTT proliferation assay, EC50, KB/Hela” value stood at 0.01 µg/mL. Moreover, the “XTT proliferation assay, EC50, SKOV3” value in series [2] (SKOV-3 cells, 45 h incubation) was 0.007 µg/mL. Besides, the “XTT proliferation assay, EC50, SF-268” value in series [3] (SF-268 cells, 45 h incubation) was found to be 0.019 µg/mL. Moreover, the “XTT proliferation assay, EC50, NCI-H460” value in series [4] (setting [6]) is 0.016 µg/mL.
As to `Cc1cccc(N2CCN(C(=O)c3c4ccccc4nc4cc(O)cc(O)c34)CC2)n1` [Compound 1, (1,3-Dihydroxyacridin-9-yl)-[4-(6-methylpyridin-2-yl)piperazin-1-yl]-methanone], in series [5], the “Water solubility compared to the comparison substances” value was “greatly improved water solubilities” and the solubility is 83.9 µg/mL (≈ 202 µM).
Consider `O=C(c1c2ccccc2nc2ccccc12)N1CCN(c2cccc(OP(=O)(O)Oc3cccc(N4CCN(C(=O)c5c6ccccc6nc6ccccc56)CC4)c3)c2)CC1` [Compound 11, bis-{3-[4-(Acridin-9-ylcarbonyl)piperazin-1-yl]phenyl}phosphate], for which the “XTT proliferation assay, EC50, KB/Hela” value in series [1] (KB/HeLa cells, 45 h incubation) was determined as 0.132 µg/mL. The “XTT proliferation assay, EC50, SKOV3” value in series [2] (SKOV-3 cells, 45 h incubation) stood at 0.133 µg/mL. The “XTT proliferation assay, EC50, SF-268” value in series [3] (SF-268 cells, 45 h incubation) came to 0.127 µg/mL. In series [4] (setting [6]), the “XTT proliferation assay, EC50, NCI-H460” value was 0.293 µg/mL.
For `CC1(C)OCC(C2OC3OC(C)(C)OC3C2OC(=O)CCC(=O)Oc2cccc(N3CCN(C(=O)c4c5ccccc5nc5ccccc45)CC3)c2)O1` (centres unmarked) [Compound 23, 3-[4-(Acridin-9-ylcarbonyl)piperazin-1-y;]phenyl 5-(2,2-dimethyl-[1,3]dioxolan-4-yl)-2,2-dimethyltetrahydrofuro[2,3-d][1,3]dioxol-6-yl succinate], in series [1] (KB/HeLa cells, 45 h incubation), the “XTT proliferation assay, EC50, KB/Hela” value was 0.045 µg/mL. For the same compound, the “XTT proliferation assay, EC50, SKOV3” value in series [2] (SKOV-3 cells, 45 h incubation) came out at 0.023 µg/mL. Moreover, the “XTT proliferation assay, EC50, SF-268” value in series [3] (SF-268 cells, 45 h incubation) is 0.058 µg/mL. Besides, the “XTT proliferation assay, EC50, NCI-H460” value in series [4] (setting [6]) was determined as 0.055 µg/mL.
On to `O=C(Oc1cccc(N2CCN(C(=O)c3c4ccccc4nc4ccccc34)CC2)c1)Oc1cccc(N2CCN(C(=O)c3c4ccccc4nc4ccccc34)CC2)c1` [Compound 19, bis-{3-[4-(Acridin-9-ylcarbonyl)piperazin-1-yl]phenyl}carbonate], for which the EC50 in series [1] (KB/HeLa cells, 45 h incubation) was determined as 0.02 µg/mL (≈ 0.0252 µM); in series [2] (SKOV-3 cells, 45 h incubation), 0.013 µg/mL (≈ 0.0164 µM); in series [3] (SF-268 cells, 45 h incubation) it was 0.025 µg/mL (≈ 0.0315 µM); in series [4] (setting [6]) it was 0.026 µg/mL (≈ 0.0328 µM).
The corresponding values for `O=C(CCCCOC1C(O)C(O)OC(CO)C1O)Oc1cccc(N2CCN(C(=O)c3c4ccccc4nc4ccccc34)CC2)c1` (centres unmarked) [Compound 26, 3-[4-(Acridin-9-ylcarbonyl)piperazin-1-yl]phenyl 5-(2,3,5-trihydroxy-6-hydroxymethyltetrahydropyran-4-yloxy)pentanoate] are 0.042 µg/mL (≈ 0.065 µM), 0.026 µg/mL (≈ 0.0403 µM), 0.047 µg/mL (≈ 0.0728 µM) and 0.054 µg/mL (≈ 0.0836 µM).
For the compound `CN1CCN(C(=O)CCC(=O)Oc2cccc(N3CCN(C(=O)c4c5ccccc5nc5ccccc45)CC3)c2)CC1` [Compound 21, 3-[4-(Acridin-9-ylcarbonyl)piperazin-1-yl]phenyl 4-(4-methylpiperazin-1-yl)-4-oxobutyrate], the EC50 in series [1] (KB/HeLa cells, 45 h incubation) is 0.024 µg/mL (≈ 0.0424 µM); in series [2] (SKOV-3 cells, 45 h incubation) it was 0.018 µg/mL (≈ 0.0318 µM); in series [3] (SF-268 cells, 45 h incubation) it was 0.027 µg/mL (≈ 0.0477 µM); in series [4] (setting [6]), 0.025 µg/mL (≈ 0.0442 µM). For the same compound, the “Water solubility compared to the comparison substances” value in series [5] was “greatly improved water solubilities”. For the same compound, in series [5], the concentration in solution (solubility) was 115 µg/mL (≈ 203 µM).
On to `O=C(CCC(=O)OC1C(O)C(O)OC(CO)C1O)Oc1cccc(N2CCN(C(=O)c3c4ccccc4nc4ccccc34)CC2)c1` (centres unmarked) [Compound 25, 3-[4-(Acridin-9-ylcarbonyl)piperazin-1-yl]phenyl 2,3,5-trihydroxy-6-hydroxymethyltetrahydropyran-4-yl succinate], for which the EC50 was 0.019 µg/mL in series [1] (KB/HeLa cells, 45 h incubation); 0.014 µg/mL in series [2] (SKOV-3 cells, 45 h incubation); 0.029 µg/mL in series [3] (SF-268 cells, 45 h incubation); 0.035 µg/mL in series [4] (setting [6]). In addition, in series [5], the “Water solubility compared to the comparison substances” value is recorded as “greatly improved water solubilities”. In series [5], this compound gave a solubility of 215 µg/mL.
On to `O=C(c1c2ccccc2nc2ccccc12)N1CCN(c2cccc(O)c2)CC1` [Acridin-9-yl-[4-(3-hydroxyphenyl)piperazin-1-yl]methanone, reference compound], for which the concentration in solution in series [5] (solubility) was 0.03 µg/mL (≈ 0.0782 µM).
Turning to `O=C(NCCCl)Oc1cccc(N2CCN(C(=O)c3c4ccccc4nc4ccccc34)CC2)c1` [Compound 30, 3-[4-(Acridin-9-ylcarbonyl)piperazin-1-yl]phenyl (2-chloroethyl)carbamate], the EC50 is 0.029 µg/mL (≈ 0.0593 µM) in series [1] (KB/HeLa cells, 45 h incubation); 0.019 µg/mL (≈ 0.0389 µM) in series [2] (SKOV-3 cells, 45 h incubation); 0.026 µg/mL (≈ 0.0532 µM) in series [3] (SF-268 cells, 45 h incubation); 0.025 µg/mL (≈ 0.0511 µM) in series [4] (setting [6]).
Take `CC1(C)OCC(C2OC3OC(C)(C)OC3C2OCCCCC(=O)Oc2cccc(N3CCN(C(=O)c4c5ccccc5nc5ccccc45)CC3)c2)O1` (centres unmarked) [Compound 24, 3-[4-(Acridin-9-ylcarbonyl)piperazin-1-yl]phenyl 5-[5-(2,2-dimethyl-[1,3]-dioxolan-4-yl)-2,2-dimethyltetrahydrofuro[2,3-d][1,3]dioxol-6-yloxy]-pentanoate]: the EC50 is 0.04 µg/mL (≈ 0.0551 µM) in series [1] (KB/HeLa cells, 45 h incubation); 0.023 µg/mL (≈ 0.0317 µM) in series [2] (SKOV-3 cells, 45 h incubation); 0.048 µg/mL (≈ 0.0661 µM) in series [3] (SF-268 cells, 45 h incubation); 0.072 µg/mL (≈ 0.0992 µM) in series [4] (setting [6]).
On to `O=C(CCC(=O)N(CCO)CCO)Oc1cccc(N2CCN(C(=O)c3c4ccccc4nc4ccccc34)CC2)c1` [Compound 20, 3-[4-(Acridin-9-ylcarbonyl)piperazin-1-yl]phenyl N,N-bis-(2-hydroxy-ethyl)succinate], for which, in series [1] (KB/HeLa cells, 45 h incubation), the “XTT proliferation assay, EC50, KB/Hela” value was 0.023 µg/mL. Moreover, the “XTT proliferation assay, EC50, SKOV3” value in series [2] (SKOV-3 cells, 45 h incubation) was found to be 0.014 µg/mL. Further, in series [3] (SF-268 cells, 45 h incubation), the “XTT proliferation assay, EC50, SF-268” value worked out at 0.021 µg/mL. Further, the “XTT proliferation assay, EC50, NCI-H460” value in series [4] (setting [6]) turned out to be 0.027 µg/mL. Further, the “Absolute solubility in water” value in series [5] (saturation solubility, at most 1% DMSO, HPLC-UV) amounted to 143.5 µg/mL. Besides, the “Water solubility compared to the comparison substances” value in series [5] was “greatly improved water solubilities”.
In series [5], `Cc1cccc(N2CCN(C(=O)c3c4ccccc4nc4ccccc34)CC2)n1` [Acridin-9-yl-[4-(6-methylpyridin-2-yl)piperazin-1-yl]methanone, reference compound] showed a solubility of 1.07 µg/mL (≈ 2.8 µM).
For the compound `CC(C)NC(=O)Oc1cccc(N2CCN(C(=O)c3c4ccccc4nc4ccccc34)CC2)c1` [Compound 2, 3-[4-(Acridin-9-ylcarbonyl)piperazin-1-yl]phenyl isopropylcarbamate], the EC50 was 0.051 µg/mL (≈ 0.109 µM) in series [1] (KB/HeLa cells, 45 h incubation); 0.039 µg/mL (≈ 0.0832 µM) in series [2] (SKOV-3 cells, 45 h incubation); 0.061 µg/mL (≈ 0.13 µM) in series [3] (SF-268 cells, 45 h incubation); 0.062 µg/mL (≈ 0.132 µM) in series [4] (setting [6]).
As for `COc1cccc(N2CCN(C(=O)c3c4ccccc4nc4ccccc34)CC2)c1` [Acridin-9-yl-[4-(3-methoxyphenyl)piperazin-1-yl]-methanone, reference compound], in series [5], the concentration in solution (solubility) was 0.42 µg/mL (≈ 1.06 µM).
As to `O=C(NCCN1CCOCC1)Oc1cccc(N2CCN(C(=O)c3c4ccccc4nc4ccccc34)CC2)c1` [Compound 29, 3-[4-(Acridin-9-ylcarbonyl)piperazin-1-yl]phenyl (2-morpholin-4-yl-ethyl)carbamate], the EC50 was 0.036 µg/mL (≈ 0.0667 µM) in series [1] (KB/HeLa cells, 45 h incubation); 0.017 µg/mL (≈ 0.0315 µM) in series [2] (SKOV-3 cells, 45 h incubation); 0.024 µg/mL (≈ 0.0445 µM) in series [3] (SF-268 cells, 45 h incubation); 0.027 µg/mL (≈ 0.05 µM) in series [4] (setting [6]). Besides, the “Water solubility compared to the comparison substances” value in series [5] is given as “greatly improved water solubilities”. In series [5], this compound registered a solubility of 41 µg/mL (≈ 76 µM).
